System: P12-Ichikawa
Test: cell viability relative to DMSO control; higher = less cytotoxic
Conditions: 48 h
Outline: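 Three leukemia lines were tested: NOMO1 and SEM at 500 cells/well and P12-Ichikawa at 1000 cells/well. Each was adapted for at least four passages in each medium and seeded in 5 μl in 1536-well plates, and library compounds in DMSO were pin-dosed from 47 μM to 0.79 nM in 11 threefold steps. After 48 h at 37°C, CellTiter-Glo One luminescence was read. Viability is a percentage relative to DMSO wells on each plate, with cell-free wells as background.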

[1] = HPLM + 10% dialyzed FBS, 0.000781 µM
[2] = HPLM + 10% dialyzed FBS, 0.00234 µM
[3] = HPLM + 10% dialyzed FBS, 0.00702 µM
[4] = HPLM + 10% dialyzed FBS, 0.0211 µM
[5] = HPLM + 10% dialyzed FBS, 0.0632 µM
[6] = HPLM + 10% dialyzed FBS, 0.19 µM
[7] = HPLM + 10% dialyzed FBS, 0.569 µM
[8] = HPLM + 10% dialyzed FBS, 1.71 µM
[9] = HPLM + 10% dialyzed FBS, 5.12 µM
[10] = HPLM + 10% dialyzed FBS, 15.4 µM
[11] = HPLM + 10% dialyzed FBS, 46.1 µM
[12] = RPMI 5 mM glucose + 10% FBS, 0.000781 µM
[13] = RPMI 5 mM glucose + 10% FBS, 0.00234 µM
[14] = RPMI 5 mM glucose + 10% FBS, 0.00702 µM
[15] = RPMI 5 mM glucose + 10% FBS, 0.0211 µM
[16] = RPMI 5 mM glucose + 10% FBS, 0.0632 µM
[17] = RPMI 5 mM glucose + 10% FBS, 0.19 µM
[18] = RPMI 5 mM glucose + 10% FBS, 0.569 µM
[19] = RPMI 5 mM glucose + 10% FBS, 1.71 µM
[20] = RPMI 5 mM glucose + 10% FBS, 5.12 µM
[21] = RPMI 5 mM glucose + 10% FBS, 15.4 µM
[22] = RPMI 5 mM glucose + 10% FBS, 46.1 µM
[23] = RPMI 5 mM glucose + 10% dialyzed FBS, 0.000781 µM
[24] = RPMI 5 mM glucose + 10% dialyzed FBS, 0.00234 µM
[25] = RPMI 5 mM glucose + 10% dialyzed FBS, 0.00702 µM
[26] = RPMI 5 mM glucose + 10% dialyzed FBS, 0.0211 µM
[27] = RPMI 5 mM glucose + 10% dialyzed FBS, 0.0632 µM
[28] = RPMI 5 mM glucose + 10% dialyzed FBS, 0.19 µM
[29] = RPMI 5 mM glucose + 10% dialyzed FBS, 0.569 µM
[30] = RPMI 5 mM glucose + 10% dialyzed FBS, 1.71 µM
[31] = RPMI 5 mM glucose + 10% dialyzed FBS, 5.12 µM
[32] = RPMI 5 mM glucose + 10% dialyzed FBS, 15.4 µM
[33] = RPMI 5 mM glucose + 10% dialyzed FBS, 46.1 µM

Structure (SMILES) | cell viability [1] | cell viability [2] | cell viability [3] | cell viability [4] | cell viability [5] | cell viability [6] | cell viability [7] | cell viability [8] | cell viability [9] | cell viability [10] | cell viability [11] | cell viability [12] | cell viability [13] | cell viability [14] | cell viability [15] | cell viability [16] | cell viability [17] | cell viability [18] | cell viability [19] | cell viability [20] | cell viability [21] | cell viability [22] | cell viability [23] | cell viability [24] | cell viability [25] | cell viability [26] | cell viability [27] | cell viability [28] | cell viability [29] | cell viability [30] | cell viability [31] | cell viability [32] | cell viability [33]
CC(C)(C)c1cc(C=C(C#N)C#N)cc(Br)c1O | 96.9% | 116% | 74.7% | 114% | 122% | 122% | 123% | 120% | 121% | 116% | 104% | 101% | 110% | 67.7% | 117% | 115% | 123% | 124% | 113% | 123% | 121% | 100% | 106% | 114% | 79.7% | 116% | 126% | 132% | 117% | 132% | 130% | 113% | 110%
CC(C)(C)C(=O)Oc1ccc([S+](=O)([O-])Nc2ccccc2C(=O)NCC(=O)O)cc1 | 113% | 114% | 113% | 111% | 117% | 122% | 116% | 115% | 111% | 123% | 133% | 107% | 106% | 111% | 106% | 115% | 123% | 113% | 119% | 126% | 131% | 134% | 112% | 115% | 106% | 118% | 113% | 117% | 120% | 121% | 122% | 132% | 138%
CCOC(=O)N1CCN(/[N+]([O-])=N/Oc2ccc([N+](=O)[O-])cc2[N+](=O)[O-])CC1 | 93.7% | 94.7% | 96% | 97.1% | 98.2% | 102% | 101% | 97% | 95.5% | 96.9% | 27.1% | 91.6% | 96.5% | 88% | 90.6% | 102% | 99.2% | 99.8% | 97.1% | 84.3% | 78.7% | 19.9% | 92% | 83.9% | 87.7% | 88.3% | 88.4% | 86.4% | 90.1% | 85.9% | 82.8% | 82.8% | 18.8%
COc1cc(O)c2c(c1)C1OC1C[C@H](O)[C@H](O)C(=O)/C=C\C[C@H](C)OC2=O (stereo partly drawn) | 99.6% | 112% | 114% | 110% | 110% | 120% | 112% | 112% | 112% | 81.5% | 11.3% | 113% | 112% | 118% | 110% | 115% | 114% | 116% | 125% | 117% | 80.5% | 13.5% | 96.5% | 117% | 116% | 118% | 114% | 135% | 124% | 123% | 132% | 85.1% | 14.3%
COc1cc(C(C)=O)ccc1OCCCN1CCC(c2noc3cc(F)ccc23)CC1 | 118% | 115% | 119% | 127% | 124% | 127% | 129% | 124% | 129% | 125% | 120% | – | – | – | – | – | – | – | – | – | – | – | – | – | – | – | – | – | – | – | – | – | –
CC(=O)Nc1ccc([C@H](C)C(=O)Nc2ncc(C(C)C)s2)cc1 | 97.9% | 101% | 94.5% | 98.4% | 100% | 92.1% | 96.7% | 94.4% | 89.9% | 24.6% | 5.24% | 95.6% | 96.9% | 101% | 95.1% | 93.3% | 93.8% | 97.6% | 107% | 101% | 26% | 6.22% | 99.3% | 89.5% | 97.2% | 99.5% | 110% | 101% | 99.4% | 99.7% | 83.7% | 22.8% | 5.31%
O=C(NC[C@H]1CN(c2ccc(N3CCOCC3=O)cc2)C(=O)O1)c1ccc(Cl)s1 | 104% | 111% | 112% | 115% | 113% | 119% | 122% | 114% | 16% | 13.4% | 12.4% | – | – | – | – | – | – | – | – | – | – | – | 103% | 119% | 115% | 125% | 126% | 123% | 134% | 132% | 51.1% | 37.8% | 19.3%
Cc1c(Cn2c(C)nc3c(C(=O)O)cc(N4CCOCC4)cc32)cccc1C(F)(F)F | 102% | 109% | 107% | 116% | 115% | 108% | 120% | 106% | 104% | 110% | 87.8% | 98.6% | 100% | 108% | 115% | 111% | 102% | 113% | 109% | 99.5% | 89.2% | 94.2% | 92.9% | 112% | 109% | 122% | 115% | 106% | 119% | 111% | 96.9% | 107% | 100%
CC1(C)OC2CC3C4CC(F)C/5=C/C(=O)/C=C\C5(C)C4C(O)CC3(C)[C@@]2(O1)C(=O)CO (stereo partly drawn) | 110% | 117% | 114% | 115% | 107% | 94.9% | 78% | 73.8% | 71.6% | 72.5% | 70.7% | – | – | – | – | – | – | – | – | – | – | – | 115% | 119% | 117% | 102% | 94.4% | 76.6% | 61.4% | 52.1% | 50.8% | 45.9% | 49%

Source: the supplement of paper PMC11451515
